Read-outs that look alike come from different tables or passages of the source.

Data set [1] is described as follows: Peptide binding to vancomycin studied by UV spectroscopy. From the text:
when studied by UV spectroscopy. The binding constants for the other

The conditions of data set [2]: no additive, HPLC.
Method: (§1) Solutions containing vancomycin (1 mmol) and peptide (either 1 mmol or 2 mmol) in a total volume of 2 ml (pH 4.1-4.2) were placed in screw-capped test tubes and heated at 80° C. for 17 hr. At the end of the reaction time aliquots of the reaction mixture were analyzed for vancomycin and its degradation products, CDP-I-Major (CDP-I-M) and CDP-I-minor (CDP-I-m), by HPLC (Harris, Kopecka and Harris (1983), J. Am. Chem. Soc. 105: 6915-6922).
For data set [3] the following is noted: cited from earlier work.
Another data set relates to Staphylococcus. To be noted: cited from earlier work.
The nature of another data set: physchem. To be noted: water, pH 4.15.

Method for B. subtilis: The protection of antibiotic activity of vancomycin by binding peptide is illustrated by the following experiment. Solutions containing vancomycin (2 mmol) and peptide 4 mmol) in a total volume of 1 ml (pH 4.40) were placed in screw-capped test tubes and heated at 80° C. for 66 h. The residual antibiotic activity was measured by the disc diffusion technique with B. subtilis as the test organism (Coller and Gralnick (1977), J. Clinical Investigation 60: 302-312; Crossley, Rotschafer, Chern, Mead and Zaske (1980), Antimicrob. Agents and Chemother. 17: 654-657).
Vancomycin-peptide solutions were prepared as in the previous experiments and steam sterilized (15 psi) for 30 min. Antibiotic activity was measured as in Example II.
Method for physchem: as §1

For the compound `CC(=O)N[C@H](C)C(=O)NCCC(=O)O` [Ac--D-ala-β-ala], the “measurable binding to vancomycin” value in data set [1] is “does not exhibit any measurable binding”.
Take `CN[C@H](CC(C)C)C(=O)N[C@H]1C(=O)N[C@@H](CC(N)=O)C(=O)N[C@H]2C(=O)N[C@H]3C(=O)N[C@H](C(=O)N[C@H](C(=O)O)c4cc(O)cc(O)c4-c4cc3ccc4O)[C@H](O)c3ccc(c(Cl)c3)Oc3cc2cc(c3O[C@@H]2O[C@H](CO)[C@@H](O)[C@H](O)[C@H]2O[C@H]2C[C@](C)(N)[C@H](O)[C@H](C)O2)Oc2ccc(cc2Cl)[C@H]1O` [Vancomycin]: the “% Vancomycin remaining (unheated control)” value in data set [2] worked out at 92%. Moreover, the “% Activity (unheated)” value in the data set with B. subtilis (Table II, disc diffusion) is reported as 100%; in the data set on B. subtilis (Table III, disc diffusion), 100%. For the same compound, the “% Activity (heated)” value in the data set on B. subtilis (heated 80° C. for 66 h, pH 4.40, disc diffusion) was 25%. For the same compound, in the data set with B. subtilis (steam sterilized (15 psi) for 30 min, disc diffusion), the “% Activity (steam sterilized)” value is reported as 58%. Besides, the “storage stability in aqueous solution, refrigerated” value in data set [3] (refrigeration temperatures (viz. 5° C.)) is “can be stored for several weeks”. Further, the “potency and pH change in aqueous solution on storage” value in data set [3] (room temperature or prolonged storage under refrigeration) was “potency is lost and autogenous pH changes occur”. Also, in the data set with Staphylococcus, the “effectiveness against Staphylococcus” value is listed as “particularly effective”. Besides, the amount remaining at 17 h in the data set “physchem” is 49%.

(Values after patent publication US4670258A, “Storable prepackaged aqueous solutions of vancomycin” (Vanderbilt University, priority 1984, dated 1987).)
